The source of these data is patent publication US6867179B1, “Methods of inducing hair growth and coloration” (Trustees of Boston University, priority 1994, dated 2005).

In one data set the test system is MM4 cells. The experiment in a line: MM4 cell yields after UV or sham irradiation with growth factor supplementation. Format: cell-based, human. Particulars: UV 10 mJ/cm^2, 50 ng/ml NGF, 4 experiments. The procedure:
Melanocytes or MM4 cells were plated in 60 mm diameter tissue culture dishes. Melanocytes were maintained in Medium 199 supplemented with 7% fetal bovine serum (FBS), 10 ng/ml epidermal growth factor (Collaborative Research), […] (Sigma), […] (Collaborative Research), […] (Sigma), 1.4×10^−6 M hydrocortisone (Calbiochem), […] (Calbiochem), and 10 ng/ml basic fibroblast growth factor (Collaborative Research) (basal melanocyte medium). MM4 cells were maintained in 55.3% DME, 27.6% L15, 15% FBS, 1% nonessential amino acids (GIBCO BRL), 2 mM glutamine and 10 µg/ml insulin. After 24 hours, medium was replaced by phosphate buffered saline (PBS) and cells were irradiated using a 1 KW xenon arc solar simulator (XMN 1000-21, Optical Radiation Corp., Azuza, Calif.) with 5, 10, or 25 mJ/cm^2 UV through the petri dish plastic cover. Irradiance was adjusted to 4×10^−5 UV cm^−2 and metered with a research radiometer (model IL1700A, International Light, Newburyport, Mass.) fitted with a UVB probe at 285 Å 5 nm. After UV irradiation, cells were maintained in their respective media without FBS for 2 days (MM4 cells) or 3 days (melanocytes) and processed as indicated. Sham irradiated control cultures were handled identically but laced under a dark cloth adjacent to the UV beam.
FIGS. 2B and 2D show MM4 cell yields 24-72 hours after a single UV irradiation of 10 mJ/cm^2. FIGS. 2C and 2e show MM4 cell yields 24-72 hours after sham irradiation. Cells in FIGS. 2B and 2C were supplemented with 50 ng/ml NGF or diluent alone. Cells in FIGS. 2D and 2E were supplemented with 50 ng/ml bFGF or diluent alone.
Melanocytes or MM4 cells were plated as described in Example 1. After irradiation, melanocytes were maintained in basal melanocyte medium lacking FBS and hydrocortisone, with 50 ng/ml NGF or diluent alone (melanocyte medium). MM4 cells were maintained in DME supplemented with 50 ng/ml NGF or diluent alone.

The test system of the next data set is BCL-2. Kind of data set: BCL-2 antisense oligonucleotides in UV-irradiated MM4 cells with or without NGF. In kind it is cell-based, human. Particulars: UV 10 mJ/cm^2, NGF 50 ng/ml, 48 hours. The source says:
Purified phosphorothioate oligonucleotides were purchased from Quality Controlled Biochemicals, Inc. (Hopkinton, Mass.). 19 mer oligonucleotides were designed based on the published human BCL-2 sequence (Tsujimoto, Y. and Croce, C. M., Proc. Natl. Acad. Sci. USA, 83:5214-5218 (1986)). The sequence chosen was directed against the […] of the coding region starting 4 bases before the methionine initiation site. Nonsense oligonucleotides were used as control. Sequences used (all written 5′ to 3′): Antisense CCCAGCGTGCGCCATCCTT (SEQ ID NO: 7); Nonsense CTCCCACTCGTCATTCGAC (SEQ ID NO: 8).
MM4 cells were maintained in 60 mm diameter tissue culture dishes in 55.3% DME, 27.6% L15, 15% FBS, 1% nonessential amino acids (GIBCO BRL), 2 mM glutamine and 10 µg/ml insulin. Near confluent cells were UV irradiated with 10 mJ/cm^2. Immediately after irradiation cells were incubated with 10 uM antisense or nonsense BCL-2 oligonucleotides in suspension at […] for 30 minutes. Then cells were plated in tissue culture dishes in the presence or absence of NGF (50 ng/ml). Cells were supplemented with fresh oligonucleotides every 12 hours. Cell yield and BCL-2 level were determined 48 hours after irradiation. Cell yield was determined by counting cells in at least three representative field per each condition.

Another data set addresses T1, p75^NTR (Homo sapiens, UniProt P08138).
T1 sequence (P08138 29-427): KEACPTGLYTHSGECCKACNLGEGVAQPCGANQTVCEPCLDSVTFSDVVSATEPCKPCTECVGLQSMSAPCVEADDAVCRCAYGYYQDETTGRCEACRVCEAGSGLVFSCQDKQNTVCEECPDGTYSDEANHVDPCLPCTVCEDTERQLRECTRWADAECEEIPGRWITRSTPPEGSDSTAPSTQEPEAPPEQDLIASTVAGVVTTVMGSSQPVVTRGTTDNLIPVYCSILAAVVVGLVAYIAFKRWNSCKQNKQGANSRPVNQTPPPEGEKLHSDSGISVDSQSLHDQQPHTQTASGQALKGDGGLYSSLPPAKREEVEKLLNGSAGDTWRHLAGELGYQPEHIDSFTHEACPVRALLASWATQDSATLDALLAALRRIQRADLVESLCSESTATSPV
The experiment in a line: Competition for 125I beta-amyloid 1-40 binding to p75NTR-NIH 3T3 cells. The arrangement: expressed in transfected cells; host or cells: NIH 3T3 fibroblasts (p75^NTR NIH 3T3 cells, Dobrowsky et al. 1994). On the procedure: p75^NTR-NIH 3T3 cells were maintain in DMEM supplemented with 10% FBS in the presence of penicillin (45 ng/ml), streptomycin (68 ng/ml), and hygromycin B (17.5 ng/ml). […] After incubation, 1 mM of disuccinimidyl suberate was added for 30 minutes. Following centrifugation cells were lysed with RIPA buffer (50 mM Tris HCl, pH 8.0, […] NaCl 0.5% sodium deoxycholate 4, 5 mM MgCl2, 1% Triton x-100, 1 mM phenylmethylsulfonylfluoride [PMSF], and 1 microg/ml aprotinin), sonicated for 1-3 seconds and immunoprecipitated with anti p75^NTR antibodies (mouse monoclonal IgG1, Cedarlane Laboratories Ltd., Ontario, Canada) or mouse IgG as control for 16 hours at […] in the presence of 15 microl of protein G plus protein A agarose and 1M NaCl adjusted to pH 8.0. After several washes with 20 mM Tris HCl, pH 8.0, 1M NaCl, 5 mM MgCl2, 0.2% Triton X-100 and 1 mM PMSF, immunoprecipitates were separated over 8% PAGE and subjected to autoradiography. A band of 75-80 kD molecular weight was present only in lysates inmmunoprecipitated with anti p75^NTR antibodies and not lysates inmmunoprecipitated with irrelevant mouse IgG.
p75^NTR-NIH 3T3 cells were incubated for 2 hours at […] in binding medium (DMEM, 10 mM hepes, 0.1 mg/ml cytochrome C, 0.01% Tween 80, 1 mg/ml BSA) with ^125I beta-amyloid 1-40 and increasing concentrations of NGF (0-100 ng/ml). […]

As for “NGF: nerve growth factor, neurotrophin ligand of p75 NGF-R and trk”, in the data set with MM4 cells, the “Cell yields of MM4 cells versus diluent alone” value was “significantly higher”. The “Cell yields, NGF plus nonsense oligonucleotides versus diluent plus nonsense” value with BCL-2 is listed as “significantly higher”. Moreover, the “Competition with beta-amyloid for p75NTR binding” value in the data set with p75^NTR is on record as “could be competed off by NGF”. In addition, the “Maximum inhibition of 125I beta-amyloid binding” value with p75^NTR (NGF 100 ng/ml, 2 hours) worked out at 38%.
